Experimental data: PubChem BioAssay AID2060510 (Molecular Pharmacology Branch, DTP, NCI, 2025)

Test system: 439559-082-T-J2-PDC spheroids viability
Experiment: Anticancer human tumor 439559-082-T-J2-PDC patient-derived colon adenocarcinoma cell line growth inhibition [GQUAD]
Details: for IC50: curve of first compound; for viability, T/C: stronger effect = lower value
Source text: DNA G-quadruplex Stabilizer Agents in Combinations in Complex Spheroids
A high-throughput screen of multi-cell type tumor spheroids was designed to identify active combinations of DNA G-quadruplex stabilizer agents and targeted small molecules. Complex spheroids include a stromal component modeled by human endothelial cells (HUVEC) and fibroblasts modeled by human mesenchymal stem cells (MSCs). The concentration ranges selected for each drug and investigational agent were based upon clinically achievable concentrations if the clinical Cmax of the agent was known.
Compounds. The drugs and investigational agents: pidnarulex (CX-5461; NSC782164), APTO-253 (NSC789042), BRACO-19 (NSC847499), peposertib (NSC802822), ceralasertib (NSC780249), elimusertib (NSC800525), camonsertib (NSC841442), AZD-1390 (NSC803789), olaparib (NSC753686), talazoparib (NSC767125), ART-558 (NSC835418), sotorasib (NSC818433), MRTX-1133 (NSC836407), SN-38 (NSC673596), topotecan (NSC609699), etoposide (NSC141540), doxorubicin (NSC123127), gemcitabine (NSC613327), 5-fluorouracil (NSC19893), paclitaxel (NSC125973), vemurafenib (NSC761431), panobinostat (NSC761190), R-306465 (JNJ-16241199; NSC773264), adavosertib (NSC754352), TP-3654 (NSC805149), carboplatin (NSC241240), KSQ-4279 (NSC840948), and staurosporine (NSC755774) were obtained from the National Cancer Institute (NCI) Developmental Therapeutics Program Chemical Repository (34). The FDA-approved anticancer drug set is available from the NCI Developmental Therapeutics Program. […] The stock solutions were prepared in dimethyl sulfoxide (DMSO, Sigma-Aldrich, St. Louis, MO, cat. D2650) at 800-fold the tested concentration and stored at -70 degrees C prior to their use. All drugs and investigational agents were tested over a range starting from a high concentration at or near the clinical Cmax and decreasing in half-log increments. If the clinical Cmax for an agent had not been determined, the highest concentration tested was 10 microM.
2.3 Cell Culture. All cells were maintained in an incubator at 37 degrees C and 5% CO2 with 95% humidity. The PDC lines were cultured according to standard operating procedures established by the NCI PDMR. All PDCs were thawed and cultured in Matrigel-coated flasks prepared with a working solution of 1X Ham's F-12 nutrient mix, without supplementation (Invitrogen, cat. 11765054), 100 U/mL penicillin-streptomycin (Invitrogen, cat. 15140122), and 2.5% Matrigel (Corning Inc., cat. 354248) for the first three passages. The 857933-349-R-J2-PDC line was cultured in 6C/Colon 1B media, which includes advanced DMEM/F-12 (Thermo Fisher Scientific, cat. 12634028), 10 mM HEPES (Thermo Fisher Scientific, cat. 15630080), 1X GlutaMAX supplement (Thermo Fisher Scientific, cat. 35050061), 0.1 mg/mL primocin (InvivoGen, cat. ant-pm-2), 10% defined fetal bovine serum, heat inactivated (HyClone Laboratories Inc., cat. SH30070.03HI), 50% L-WRN conditioned media (ATCC, cat. CRL-3276), 1.25 mM N-Acetyl-L-cysteine (Sigma-Aldrich, cat. A9165), 10 mM nicotinamide (Sigma-Aldrich, cat. N0636), 1X B-27 supplement (Thermo Fisher Scientific, cat. 17504044), 1X N-2 supplement (Thermo Fisher Scientific, cat. 17502048), 10 microM Y-27632 dihydrochloride (Tocris Bioscience, cat. 1254), and 50 ng/mL human EGF recombinant protein (Thermo Fisher Scientific, cat. PHG0311). The 485176-168-R4-J1-PDC line was cultured in Panc media, which includes all 6C/Colon 1B media components plus 100 ng/mL human FGF-10 (Thermo Fisher Scientific, cat. 100-26), 500 nM SB-431542 (Selleckchem, cat. S1067), and gastrin (Tocris, cat. 3006).
[…]

[1] = second compound 0.0316 µM, first compound 0.0316 µM
[2] = second compound 0.0316 µM, first compound 0.1 µM
[3] = second compound 0.0316 µM, first compound 0.316 µM
[4] = second compound 0.0316 µM, first compound 1 µM
[5] = second compound 0.0316 µM, first compound 3.16 µM
[6] = second compound 0.0316 µM, first compound 10 µM
[7] = second compound 0.1 µM, first compound 0.0316 µM
[8] = second compound 0.1 µM, first compound 0.1 µM
[9] = second compound 0.1 µM, first compound 0.316 µM
[10] = second compound 0.1 µM, first compound 1 µM
[11] = second compound 0.1 µM, first compound 3.16 µM
[12] = second compound 0.1 µM, first compound 10 µM
[13] = second compound 0.316 µM, first compound 0.0316 µM
[14] = second compound 0.316 µM, first compound 0.1 µM
[15] = second compound 0.316 µM, first compound 0.316 µM
[16] = second compound 0.316 µM, first compound 1 µM
[17] = second compound 0.316 µM, first compound 3.16 µM
[18] = second compound 0.316 µM, first compound 10 µM
[19] = second compound 1 µM, first compound 0.0316 µM
[20] = second compound 1 µM, first compound 0.1 µM
[21] = second compound 1 µM, first compound 0.316 µM
[22] = second compound 1 µM, first compound 1 µM
[23] = second compound 1 µM, first compound 3.16 µM
[24] = second compound 1 µM, first compound 10 µM
[25] = second compound 3.16 µM, first compound 0.0316 µM
[26] = second compound 3.16 µM, first compound 0.1 µM
[27] = second compound 3.16 µM, first compound 0.316 µM
[28] = second compound 3.16 µM, first compound 1 µM
[29] = second compound 3.16 µM, first compound 3.16 µM
[30] = second compound 3.16 µM, first compound 10 µM
[31] = second compound 10 µM, first compound 0.0316 µM
[32] = second compound 10 µM, first compound 0.1 µM
[33] = second compound 10 µM, first compound 0.316 µM
[34] = second compound 10 µM, first compound 1 µM
[35] = second compound 10 µM, first compound 3.16 µM
[36] = second compound 10 µM, first compound 10 µM
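Note: spheroids exposed to the agents for 7 days before readout.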
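Throughout, for viability, T/C: percent of luminescence signal in DMSO vehicle wells taken as 100% viability.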

C=CCn1c(=O)c2cnc(Nc3ccc(N4CCN(C)CC4)cc3)nc2n1-c1cccc(C(C)(C)O)n1 + CN(C)c1ccc(Nc2c3ccc(NC(=O)CCN4CCCC4)cc3nc3cc(NC(=O)CCN4CCCC4)ccc23)cc1
IC50 (second compound 0.0316 µM): 4.71 µM
IC50 (second compound 0.1 µM): 3.41 µM
IC50 (second compound 0.316 µM): 4.01 µM
IC50 (second compound 1 µM): 3.54 µM
IC50 (second compound 3.16 µM): 4.04 µM
IC50 (second compound 10 µM): 3.41 µM
viability, T/C [1]: 95%
viability, T/C [2]: 89.5%
viability, T/C [3]: 85.1%
viability, T/C [4]: 82.1%
viability, T/C [5]: 63.3%
viability, T/C [6]: 24.8%
viability, T/C [7]: 94.7%
viability, T/C [8]: 97.9%
viability, T/C [9]: 85%
viability, T/C [10]: 69.4%
viability, T/C [11]: 54.4%
viability, T/C [12]: 20.9%
viability, T/C [13]: 99.3%
viability, T/C [14]: 101%
viability, T/C [15]: 82.7%
viability, T/C [16]: 81%
viability, T/C [17]: 55.7%
viability, T/C [18]: 24.5%
viability, T/C [19]: 101%
viability, T/C [20]: 96.7%
viability, T/C [21]: 88.6%
viability, T/C [22]: 74.9%
viability, T/C [23]: 54.5%
viability, T/C [24]: 18.2%
viability, T/C [25]: 96.2%
viability, T/C [26]: 97.8%
viability, T/C [27]: 93.9%
viability, T/C [28]: 89.3%
viability, T/C [29]: 58.5%
viability, T/C [30]: 18.2%
viability, T/C [31]: 94.3%
viability, T/C [32]: 90.9%
viability, T/C [33]: 78.2%
viability, T/C [34]: 76.2%
viability, T/C [35]: 53.1%
viability, T/C [36]: 13.3%

CC(=O)O[C@H]1C(=O)[C@@]2(C)[C@H]([C@H](OC(=O)c3ccccc3)[C@]3(O)C[C@H](OC(=O)[C@H](O)[C@@H](NC(=O)c4ccccc4)c4ccccc4)C(C)=C1C3(C)C)[C@]1(OC(C)=O)CO[C@@H]1C[C@@H]2O + CN(C)c1ccc(Nc2c3ccc(NC(=O)CCN4CCCC4)cc3nc3cc(NC(=O)CCN4CCCC4)ccc23)cc1
IC50 (second compound 0.0316 µM): 2.03 µM
IC50 (second compound 0.1 µM): 1.83 µM
IC50 (second compound 0.316 µM): 2.04 µM
IC50 (second compound 1 µM): 1.79 µM
IC50 (second compound 3.16 µM): 2.18 µM
IC50 (second compound 10 µM): 1.36 µM
viability, T/C [1]: 84.8%
viability, T/C [2]: 77.7%
viability, T/C [3]: 74.5%
viability, T/C [4]: 62.8%
viability, T/C [5]: 41.7%
viability, T/C [6]: 29.9%
viability, T/C [7]: 85.1%
viability, T/C [8]: 83.7%
viability, T/C [9]: 74.2%
viability, T/C [10]: 60.9%
viability, T/C [11]: 40.3%
viability, T/C [12]: 31.6%
viability, T/C [13]: 84%
viability, T/C [14]: 82.3%
viability, T/C [15]: 69.7%
viability, T/C [16]: 60.4%
viability, T/C [17]: 44%
viability, T/C [18]: 30.7%
viability, T/C [19]: 76.2%
viability, T/C [20]: 82.9%
viability, T/C [21]: 70%
viability, T/C [22]: 64%
viability, T/C [23]: 36.9%
viability, T/C [24]: 28.9%
viability, T/C [25]: 82.1%
viability, T/C [26]: 84.6%
viability, T/C [27]: 78.9%
viability, T/C [28]: 65.8%
viability, T/C [29]: 42.5%
viability, T/C [30]: 26.7%
viability, T/C [31]: 73.5%
viability, T/C [32]: 73.9%
viability, T/C [33]: 86.2%
viability, T/C [34]: 56.6%
viability, T/C [35]: 36.7%
viability, T/C [36]: 27%
